Assay results reported in paper PMC12406256, “Food Additives Inhibit Intestinal Drug Transporters but Have Limited Effect on In Vitro Drug Permeability” (Molecular Pharmaceutics, 2025).
Like-named read-outs stand apart in the source and are kept apart here.

What was measured:
Caco-2 cells [1] = experiment: in vitro; details: for effect on sulfasalazine permeability (P app): Caco-2
Method: (§1) Caco-2 cells were cultured on 12-well Transwell polycarbonate membrane inserts with a 0.4 μm pore size (Corning Incorporated, Kennebunk, ME) at 37 °C and 5% CO2 for 21–24 days prior to the experiment as described in Hubatsch et al. The culture medium (DMEM, 10% FBS, 1% MEM nonessential amino acids, 100 U/mL penicillin–streptomycin) was changed every second day. Transepithelial electrical resistance (TEER) was measured before and after the permeability assay with a Millicell-ERS electrode (Millipore, Bedford, MA) attached to an epithelial volt ohm meter (EVOM, World Precision Instruments, Sarasota, FL). The permeability assay was performed according to a previously published protocol. […] Sulfasalazine is a substrate of BCRP and OATP2B1. , The DMSO concentration was 0.45–1.5%. Before the experiment, inserts were washed and preincubated in the transport buffer for 20 min shaking at 37 °C. Sulfasalazine and LY permeability was measured in the apical to basolateral direction at five time points (20, 40, 60, 90, and 120 min) and, additionally, in the basolateral to apical direction to calculate the efflux ratio. […] […] LY (250 μM) was added on the donor side of all inserts to measure the integrity of the cell monolayer. Before analysis, samples were centrifuged at 2755g for 30 min, and donor solution and mass balance samples were diluted 1:100. LY fluorescence was measured with a Varioskan LUX microplate reader (Thermo Fisher Scientific) at 430 nm excitation and 538 nm emission. Sulfasalazine was analyzed with ultra-performance liquid chromatography (UPLC) using a Syncronis C18 column (1.7 μm particle size, 50 × 2.1 mm + 0.2 μm Waters online filter) (Thermo Fisher Scientific) coupled with Waters Acquity UPLC interfaced with a PDA detector both controlled by the Waters Empower software version 3. The UPLC was operated in gradient mode at 354 nm. Solvents were 0.015 M phosphate buffer pH 2 (A), acetonitrile (B), 1:1 acetonitrile/methanol (strong needle wash), and 20% acetonitrile (weak needle wash). Column temperature was 30 °C, injection volume was 10 μL, retention time was 1.46 min, and flow rate was 0.5 mL/min. The gradient was 25% B → 70% B (0–3 min), 70% B → 25% B (3.00–3.01 min), and 25% B (3.01–4 min). The data were collected for the first 180 s of each UPLC run.
(§2) In the Caco-2 permeability assay, the apparent permeability (P app) of sulfasalazine was calculated using the following equation: Papp=(dQ/dt)(1/A×C0) where dQ/dt is the rate of permeation across the cells (nmol/min), A is the surface area of the filter (1.12 cm^2), and C 0 is the initial concentration in the donor chamber (μM). The efflux ratio of sulfasalazine was calculated by dividing the P app in the basolateral to the apical direction by the P app in the apical to basolateral direction. The TEER for each cell insert was calculated before and after the experiment by multiplying the mean resistance of three measurements by the surface area of the filter (1.12 cm^2). Mass balance was calculated by dividing the […]. All experiments were done in triplicate wells, and the IC50 and Caco-2 permeability assays were repeated three times.

MRP2 [2] = biological target: T1, MRP2 (Homo sapiens, UniProt Q92887); design: method as in previous studies; details: previously characterized inhibitors; ref previous studies; read-out: IC50 (95% CI), MRP2; cited from earlier work
T1 construct: made in house; host or cells: Spodoptera frugiperda Sf9 cells, crude membrane vesicles

OATP2B1 [3] = biological target: T2, OATP2B1 (Homo sapiens, UniProt O94956); details: previously characterized inhibitors, ref previous studies, cited from earlier work; for Ki: read-out: K i, OATP2B1
T2 construct: expressed in transfected cells; host or cells: HEK293 cells (ATCC) transduced with recombinant OATP2B1 baculovirus
T2 sequence (O94956 1-709): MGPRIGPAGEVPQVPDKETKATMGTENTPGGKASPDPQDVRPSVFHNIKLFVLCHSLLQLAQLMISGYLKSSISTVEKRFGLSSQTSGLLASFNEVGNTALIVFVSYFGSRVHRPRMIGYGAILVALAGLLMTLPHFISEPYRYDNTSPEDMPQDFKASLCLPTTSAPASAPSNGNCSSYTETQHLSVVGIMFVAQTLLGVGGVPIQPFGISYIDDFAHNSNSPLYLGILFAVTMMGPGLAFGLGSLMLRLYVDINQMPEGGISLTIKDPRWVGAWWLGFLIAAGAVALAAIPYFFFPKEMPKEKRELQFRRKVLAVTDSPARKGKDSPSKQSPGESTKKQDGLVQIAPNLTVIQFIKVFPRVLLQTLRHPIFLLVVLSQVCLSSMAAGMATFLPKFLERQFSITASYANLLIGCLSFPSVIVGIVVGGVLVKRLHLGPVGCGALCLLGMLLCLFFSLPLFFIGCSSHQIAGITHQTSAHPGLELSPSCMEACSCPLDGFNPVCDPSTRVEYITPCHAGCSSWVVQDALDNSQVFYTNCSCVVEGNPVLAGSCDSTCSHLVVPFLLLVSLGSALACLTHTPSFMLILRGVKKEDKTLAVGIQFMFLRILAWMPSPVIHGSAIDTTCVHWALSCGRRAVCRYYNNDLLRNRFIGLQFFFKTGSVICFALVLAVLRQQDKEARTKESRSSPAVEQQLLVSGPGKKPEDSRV

OATP2B1 [4] = test system: OATP2B1; design: method as in Zou et al.; details: 25 mg/kg; P-gp-deficient mice; ref Zou et al.; cited from earlier work
BCRP [5] = biological target: T3, BCRP (Homo sapiens, UniProt Q9UNQ0); details: read-out: IC50 (95% CI), BCRP; previously characterized inhibitors; ref previous studies; cited from earlier work
T3 sequence (Q9UNQ0 1-655): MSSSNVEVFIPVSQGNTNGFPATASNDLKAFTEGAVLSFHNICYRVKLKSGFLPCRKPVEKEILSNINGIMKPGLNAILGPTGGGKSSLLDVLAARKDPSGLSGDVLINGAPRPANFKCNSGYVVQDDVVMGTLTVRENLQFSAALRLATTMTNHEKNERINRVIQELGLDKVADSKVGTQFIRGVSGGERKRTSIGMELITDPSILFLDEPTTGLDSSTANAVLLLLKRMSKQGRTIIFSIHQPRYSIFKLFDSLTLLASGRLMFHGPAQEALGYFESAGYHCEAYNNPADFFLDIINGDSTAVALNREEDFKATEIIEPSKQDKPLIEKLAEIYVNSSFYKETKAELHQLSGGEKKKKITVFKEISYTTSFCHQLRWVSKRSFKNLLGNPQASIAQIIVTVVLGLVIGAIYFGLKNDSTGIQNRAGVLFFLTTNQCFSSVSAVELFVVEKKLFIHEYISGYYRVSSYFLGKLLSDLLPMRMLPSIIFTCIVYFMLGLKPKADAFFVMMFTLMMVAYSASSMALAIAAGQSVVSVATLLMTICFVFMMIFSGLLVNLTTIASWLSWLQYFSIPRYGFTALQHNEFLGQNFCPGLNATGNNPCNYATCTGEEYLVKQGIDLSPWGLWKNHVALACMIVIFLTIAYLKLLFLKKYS

Caco-2 cells [6] = test system: Caco-2 cells; design: method as in not given; details: ref not given; cited from earlier work
[7] = design: method as in not given; details: rats; ref not given; cited from earlier work
MRP2 [8] = biological target: T1, MRP2; experiment: Vesicular transport assay, MRP2 (CDCF substrate); assay type: biochemical; details: food additive 50 μM; CDCF 5 μM; n = 1
Method: Transport inhibition by 22 food additives was tested with Spodoptera frugiperda (Sf9) derived crude membrane vesicles expressing BCRP, MRP2, or P-gp produced in-house. […] Vesicles (50 μg total protein/well) were diluted in an assay buffer (40 mM MOPS–Tris pH 7.0, 60 mM KCl, and 6 mM MgCl2) with the substrate, and food additives (final concentration of 50 μM) in DMSO were added to the mixture. After preincubation, either the assay buffer or Mg-ATP solution (final concentration 4 mM) was added to the plate to start the reaction. The plate was incubated at 37 °C, and the reaction was stopped with an ice-cold washing mixture (40 mM MOPS-Tris pH 7.0 and 70 mM KCl). Samples were moved to a MultiScreenHTS-FB Plate Glass fiber 1.0 μm/0.65 μm Durapore filter plate (Millipore, USA), and the wells were washed five times with the ice-cold washing mixture. For BCRP and MRP2, the fluorescent substrate was eluted from the filters with 100 μL 0.1 M NaOH. […] The amount of the substrate accumulated into the vesicles was measured by fluorescent detection using a Varioskan LUX microplate reader (Thermo Fisher Scientific, Finland) (Table ).
(§3) For the efflux transporters, the relative transport was calculated as relativetransport(%ofcontrol)=transportinh,ATP−transportinh,noATP/transportDMSO,ATP−transportDMSO,noATP×100% where transportinh,ATP and transportinh,no ATP are the transport rates in the presence of food additives with or without ATP, respectively, and transportDMSO,ATP and transportDMSO,no ATP are the corresponding transport rates in the presence of the vehicle (DMSO) with or without ATP.
(§4) The half-maximal inhibitory concentrations (IC50) were calculated with GraphPad Prism version 9.0.2 (GraphPad Software, San Diego, CA) using nonlinear regression that fits the data to a four-parameter dose–response curve: relativetransport=minimum+maximum−minimum/1+([I]/IC50)^h where minimum and maximum describe the plateaus of minimal and maximal relative transport (%), [I] is the concentration of inhibitor, and h is the Hill slope, which describes the steepness of the slope.

OATP2B1 [9] = biological target: T2, OATP2B1; experiment: HEK293 uptake assay, OATP2B1 (5-carboxyfluorescein substrate); assay type: cell-based; details: human, HEK293 cells transduced with recombinant OATP2B1 baculovirus, pH 6, probe 5-carboxyfluorescein 2 μM, food additive 50 μM, n = 1, read-out: inhibition of OATP2B1-mediated uptake
Method: The inhibition of OATP2B1 was studied using a HEK293 cell-based uptake assay. HEK293 cells were cultured in DMEM supplemented with 10% FBS at 37 °C and 5% CO2 and seeded at 22,500 cells/well on 96-well plates coated with 0.1 mg/mL poly-D-lysine. After 24 h, the medium was replaced with a transduction mix (DMEM with 10% FBS, 5 mM sodium butyrate, and recombinant OATP2B1 or enhanced yellow fluorescent protein [eYFP, negative control] baculoviruses). The baculoviruses were produced as previously described. The uptake assay was performed after approximately 48 h. […] Test solutions also contained the substrate. Cells were washed with warm transport buffer and preincubated at 37 °C. Preincubation solutions were replaced with test solutions and incubated at 37 °C with shaking at 250 rpm. Transport was terminated by aspirating the test solution and washing the wells with an ice-cold transport buffer (150 μL) three times. Wells were left to dry, and cells were lysed with 0.1 M NaOH. […] Total protein concentration was measured from six random wells with a Pierce Coomassie (Bradford) Assay kit (Thermo Fisher Scientific) to ensure a similar protein concentration in the OATP2B1 and eYFP wells.

P-gp = P-gp (Homo sapiens, UniProt P08183); experiment: Vesicular transport assay, P-gp (N-methyl-quinidine substrate); details: food additive 50 μM; N-methyl-quinidine 2 μM; n = 1
Method: (§5) Transport inhibition by 22 food additives was tested with Spodoptera frugiperda (Sf9) derived crude membrane vesicles expressing BCRP, MRP2, or P-gp produced in-house. […] Vesicles (50 μg total protein/well) were diluted in an assay buffer (40 mM MOPS–Tris pH 7.0, 60 mM KCl, and 6 mM MgCl2) with the substrate, and food additives (final concentration of 50 μM) in DMSO were added to the mixture. After preincubation, either the assay buffer or Mg-ATP solution (final concentration 4 mM) was added to the plate to start the reaction. The plate was incubated at 37 °C, and the reaction was stopped with an ice-cold washing mixture (40 mM MOPS-Tris pH 7.0 and 70 mM KCl). Samples were moved to a MultiScreenHTS-FB Plate Glass fiber 1.0 μm/0.65 μm Durapore filter plate (Millipore, USA), and the wells were washed five times with the ice-cold washing mixture. For BCRP and MRP2, the fluorescent substrate was eluted from the filters with 100 μL 0.1 M NaOH. For LY samples, an equal volume of 0.1 M HCl was added to neutralize the samples before fluorescence measurement. The amount of the substrate accumulated into the vesicles was measured by fluorescent detection using a Varioskan LUX microplate reader (Thermo Fisher Scientific, Finland) (Table ). The accumulation into the P-gp vesicles was measured with high-performance liquid chromatography (HPLC) (Agilent 110 series, Agilent Technologies, USA) after lysis and elution of the vesicle contents with 100 μL 3:1 methanol/water + 0.1% formic acid. The column used was a Poroshell 120 EC-C18 with a size of 4.6 × 100 mm and 2.7 μm particle size. Eluent A was 0.1% formic acid, and eluent B was acetonitrile. The flow rate of eluent was 1 mL/min, and the injection volume of samples was 10 μL. […] The retention time for NMQ was around 2.5 min.
as §3, §4

BCRP [10] = biological target: T3, BCRP; experiment: Vesicular transport assay, BCRP (Lucifer yellow substrate); assay type: biochemical; design: made in house; host or cells: Spodoptera frugiperda Sf9 cells, crude membrane vesicles; details: Sf9-derived crude membrane vesicles expressing BCRP, pH 7, probe Lucifer yellow 50 μM, food additive 50 μM, n = 1, read-out: inhibition of BCRP substrate accumulation
Method: as §5, §3, §4

in vitro = details: human, Caco-2, pH 7.4
Method: as §1, §2

[11] = pH 5.5, read-out: IC50, OATP2B1, pH 5.5
[12] = pH 7.4, read-out: IC50, OATP2B1, pH 7.4

T1 sequence (Q92887 whole entry): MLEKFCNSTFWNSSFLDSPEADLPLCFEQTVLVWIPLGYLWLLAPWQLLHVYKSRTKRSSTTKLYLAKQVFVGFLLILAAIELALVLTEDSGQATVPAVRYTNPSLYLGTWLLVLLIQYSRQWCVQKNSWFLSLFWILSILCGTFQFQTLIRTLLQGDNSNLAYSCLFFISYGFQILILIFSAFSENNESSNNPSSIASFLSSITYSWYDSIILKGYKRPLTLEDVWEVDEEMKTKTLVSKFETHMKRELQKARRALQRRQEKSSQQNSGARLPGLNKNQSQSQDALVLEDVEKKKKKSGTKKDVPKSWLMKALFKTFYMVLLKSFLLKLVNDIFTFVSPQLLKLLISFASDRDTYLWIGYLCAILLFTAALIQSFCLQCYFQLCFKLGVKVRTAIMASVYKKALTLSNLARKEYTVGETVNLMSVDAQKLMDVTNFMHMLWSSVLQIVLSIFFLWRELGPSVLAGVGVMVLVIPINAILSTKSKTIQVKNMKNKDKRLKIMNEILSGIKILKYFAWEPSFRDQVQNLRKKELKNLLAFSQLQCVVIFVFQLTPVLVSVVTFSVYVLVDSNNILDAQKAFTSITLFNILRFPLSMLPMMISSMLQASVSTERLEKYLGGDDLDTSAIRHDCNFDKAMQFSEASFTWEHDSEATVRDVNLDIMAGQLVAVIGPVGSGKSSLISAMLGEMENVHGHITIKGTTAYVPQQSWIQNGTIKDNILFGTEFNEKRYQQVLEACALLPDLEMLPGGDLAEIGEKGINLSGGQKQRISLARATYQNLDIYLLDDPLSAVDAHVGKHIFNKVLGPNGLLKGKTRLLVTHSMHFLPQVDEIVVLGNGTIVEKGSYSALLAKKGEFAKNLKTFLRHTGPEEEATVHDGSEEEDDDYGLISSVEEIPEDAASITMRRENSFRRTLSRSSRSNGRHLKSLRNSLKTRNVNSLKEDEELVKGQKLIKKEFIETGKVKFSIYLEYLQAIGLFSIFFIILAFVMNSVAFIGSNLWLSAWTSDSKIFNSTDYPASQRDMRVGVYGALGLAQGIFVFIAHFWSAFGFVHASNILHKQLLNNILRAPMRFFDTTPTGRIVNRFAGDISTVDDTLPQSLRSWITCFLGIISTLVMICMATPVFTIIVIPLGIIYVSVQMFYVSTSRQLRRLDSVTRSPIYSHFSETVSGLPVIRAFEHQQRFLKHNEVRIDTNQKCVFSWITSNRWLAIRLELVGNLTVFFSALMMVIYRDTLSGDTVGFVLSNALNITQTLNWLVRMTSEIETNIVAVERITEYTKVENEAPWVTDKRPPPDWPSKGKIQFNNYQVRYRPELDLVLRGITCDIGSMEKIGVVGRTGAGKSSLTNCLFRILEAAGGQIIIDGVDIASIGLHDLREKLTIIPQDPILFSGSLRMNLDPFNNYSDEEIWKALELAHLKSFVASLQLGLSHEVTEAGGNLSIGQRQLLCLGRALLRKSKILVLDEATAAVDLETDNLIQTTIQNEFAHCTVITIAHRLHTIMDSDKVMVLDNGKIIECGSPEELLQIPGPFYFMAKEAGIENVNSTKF
Sequence of P-gp (P08183 whole entry): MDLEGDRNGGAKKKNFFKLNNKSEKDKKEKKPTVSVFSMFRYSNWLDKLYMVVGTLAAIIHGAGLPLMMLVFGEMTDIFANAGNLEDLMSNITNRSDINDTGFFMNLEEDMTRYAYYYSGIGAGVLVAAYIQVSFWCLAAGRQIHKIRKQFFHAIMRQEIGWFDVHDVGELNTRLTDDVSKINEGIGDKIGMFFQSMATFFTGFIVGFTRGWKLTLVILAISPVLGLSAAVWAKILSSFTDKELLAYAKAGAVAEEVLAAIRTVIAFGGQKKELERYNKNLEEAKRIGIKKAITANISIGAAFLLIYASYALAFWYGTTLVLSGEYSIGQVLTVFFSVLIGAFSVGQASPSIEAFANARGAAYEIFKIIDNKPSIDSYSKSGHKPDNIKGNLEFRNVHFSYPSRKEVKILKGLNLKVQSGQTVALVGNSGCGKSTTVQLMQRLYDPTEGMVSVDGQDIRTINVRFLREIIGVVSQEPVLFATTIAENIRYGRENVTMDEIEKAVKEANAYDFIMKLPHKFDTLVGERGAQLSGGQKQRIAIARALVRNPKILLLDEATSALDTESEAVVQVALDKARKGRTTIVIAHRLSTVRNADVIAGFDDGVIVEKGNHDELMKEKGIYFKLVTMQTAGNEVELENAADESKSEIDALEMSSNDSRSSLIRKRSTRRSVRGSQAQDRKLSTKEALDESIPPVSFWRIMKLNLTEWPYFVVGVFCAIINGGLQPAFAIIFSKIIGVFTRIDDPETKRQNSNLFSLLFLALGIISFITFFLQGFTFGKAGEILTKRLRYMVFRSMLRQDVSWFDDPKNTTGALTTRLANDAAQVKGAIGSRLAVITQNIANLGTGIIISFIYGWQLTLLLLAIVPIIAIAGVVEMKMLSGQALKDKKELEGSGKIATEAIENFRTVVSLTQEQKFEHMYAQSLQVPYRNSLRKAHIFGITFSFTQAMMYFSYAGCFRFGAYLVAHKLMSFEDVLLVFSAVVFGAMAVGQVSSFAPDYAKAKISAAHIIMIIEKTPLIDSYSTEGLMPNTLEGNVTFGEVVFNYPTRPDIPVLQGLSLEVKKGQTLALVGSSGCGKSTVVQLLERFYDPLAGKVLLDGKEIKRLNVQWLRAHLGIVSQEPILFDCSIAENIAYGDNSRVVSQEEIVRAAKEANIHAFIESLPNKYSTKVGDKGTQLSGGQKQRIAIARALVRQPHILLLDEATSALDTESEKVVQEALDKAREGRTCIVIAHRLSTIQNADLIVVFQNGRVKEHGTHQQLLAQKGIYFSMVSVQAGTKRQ

| Structure (SMILES) | effect on sulfasalazine permeability (P app) (Caco-2 cells [1]) | IC50 (MRP2 [2]) [µM] | IC50 (OATP2B1 [3]; [11]) [µM] | IC50 (OATP2B1 [3]; [12]) [µM] | Ki (OATP2B1 [3]) [µM] | IC50 (BCRP [5]) [µM] | further results |
| --- | --- | --- | --- | --- | --- | --- | --- |
| COc1cc(S(=O)(=O)[O-])c(C)cc1N=Nc1c(O)ccc2cc(S(=O)(=O)[O-])ccc12.[Na+].[Na+] [allura red AC] | None of the selected food additives showed any effect | 20 | 1.6 | 0.8 | 2.59 |  | effect on fexofenadine plasma levels (OATP2B1 inhibition) (OATP2B1 [4]): decreases fexofenadine plasma levels |
| CCN(Cc1cccc(S(=O)(=O)[O-])c1)c1ccc(C(=C2C=CC(=[N+](CC)Cc3cccc(S(=O)(=O)[O-])c3)C=C2)c2ccccc2S(=O)(=O)[O-])cc1.[Na+].[Na+] [brilliant blue FCF] | None of the selected food additives showed any effect | 3.22 | 18.4 |  | 13 | 1.97 |  |
| O=S(=O)([O-])c1ccc(N=Nc2cc(S(=O)(=O)[O-])c3ccccc3c2O)c2ccccc12.[Na+].[Na+] [carmoisine] | None of the selected food additives showed any effect | 29 | 2.9 | 9.7 |  | 5.38 | sulfasalazine P app fold change (Caco-2 cells [1]; food additive 200 μM on both sides of the cell monolayer): ≤ 2 |
| COc1ccc(CCC(=O)c2c(O)cc(O[C@@H]3O[C@H](CO)[C@@H](O)[C@H](O)[C@H]3O[C@@H]3O[C@@H](C)[C@H](O)[C@@H](O)[C@H]3O)cc2O)cc1O [neohesperidin DC] | None of the selected food additives showed any effect |  | 15.5 | 48.6 | 20.1 | 0.86 | P app in Caco-2 cells (Caco-2 cells [6]): < 6 × 10^–6 cm/s; oral bioavailability [7]: ~20% |
| CCCCCCCCOC(=O)c1cc(O)c(O)c(O)c1 [octyl gallate] |  | 19.2 |  |  |  | 10 | inhibition of MRP2 substrate accumulation (MRP2 [8]): did not inhibit; inhibition at 50 μM (OATP2B1 [9]): ≥ 50%; inhibition of P-gp substrate accumulation (P-gp): did not inhibit; inhibition at 50 μM (BCRP [10]): ≥ 50% |
| O=C(O)c1cc(/N=N/c2ccc(S(=O)(=O)Nc3ccccn3)cc2)ccc1O [sulfasalazine, reference compound] |  |  |  |  |  |  | Papp A→B at 120 min, 500 μM (in vitro): ≤ 0.1 ×10⁻⁶ cm/s; Papp B→A at 120 min, 500 μM (in vitro): ~6.5 ×10⁻⁶ cm/s; efflux ratio at 120 min, 500 μM (in vitro): > 70 |
